Laboratory results as given in EP0103895A2, “Novel hydroxylamine derivatives, production and use thereof” (MEIJI SEIKA KABUSHIKI KAISHA, priority 1982, dated 1984).
Values joined by “and” are separate entries in the source; they are usually repeats but may differ in a detail not shown here. Identical values can stand only once.

Experiments:
[1] = test system: fowl roundworm (As. galli); experiment: Anthelmintic test in chickens artificially infected with fowl roundworm, compound added to feed, E.P.G. and worm count up to 21st day (Test Examples A2, B2, C2, D2); format: in vivo, Ascaridia galli; details: Ascaridia galli, po, 504 h, chickens, worm count on 21st day, one value per chicken, read-out: Anthelmintic effect; for inhibition in vivo at 10 ppm: 10 ppm added to feed; for inhibition in vivo at 50 ppm: 50 ppm added to feed
[2] = test system: Liver fluke; Fasciola hepatica (F. hepatica); experiment: Test of anthelmintic effect against rat infected experimentally with liver fluke (Test Examples A11, B11, C11, D11); format: in vivo; parameters: key to Presence or absence of fluke egg in fecal matter On 21st day after the last administration: +: indicates detection of fluke egg; -: indicates no detection; details: rats, 50 mg/Kg x 5 orally, one value per rat; for Condition of fluke body: autopsy, liver, "Denatured" = fluke body is alive but a part of fluke body has changed
Text: Twenty-eight (28) rats were employed in fourteen groups each of two rats, each rat being infected with 5 metacercariae of Liver fluke; Fasciola he^patica (F.. hepatica) and confirmed to have worm eggs on the 75th day after infection according to fecal matter testing.
Judgement of the effect was made by the presence or absence of the worm gees in the fecal matter on the 21st day after the last administration and by examination according to autopsis as to whether the worm bodies were dead or alive in the liver.
The same as that in Test Example All, but eight (8) rats were employed by grouping them into groups each of two rats, each rat being infected with 5 metacercariae of liver fluke and confirmed to have fluke eggs on the 75th day after infection according to fecal matter testing.
The compounds provided for the tests were Compound Nos. Bl, B8 and B19.
The same as that in Test Example All, but six (6) rats were employed by grouping them into groups each of two rats, each rat being infected with 5 metacercariae of Fasciola hepatica and confirmed to have worm eggs on the 75th day after infection according to fecal matter testing.
The compounds provided for the tests were Compound Nos. C2 and C6.
The same as that in Test Example All, but the compounds provided for tests were Compound Nos. D14, D15 and D16.

[3] = test system: swine Oesophagostomum (Oesophagostomum dentatum); experiment: Test of anthelmintic effect against swine Oesophagostomum in naturally infected pigs, E.P.G. on 7th day (Test Examples A8, B8, C8, D8); format: in vivo; details: pigs; for Change of E.P.G. Before administration / Change of E.P.G. 7th day: 20 mg/Kg orally once, one value per pig; for Change of E.P.G. Before administration: baseline, 20 mg/kg; for anthelmintic effect: one administration of 20 mg/Kg
Method: Six pigs infected with swine Oesophagostomum (naturally infected pigs) were employed by grouping them into groups each of two pigs.
As a control, only gelatin capsules were administered orally to the two pigs.
Before administration and on the 7th day after administration, fecal matter testing was conducted to calculate the E.P.G., and the anthelmintic effect was judged by the changing of the E.P.G. to negative.

[4] = test system: canine filaria; Dirofilaria immitis; experiment: Test of anthelmintic effect against canine filaria in naturally infected dogs, subcutaneous injection, microfilaria in blood and adult filaria at autopsy (Test Examples A10, B10, C10, D10); format: in vivo; details: dogs
Method: Eight dogs infected with canine filaria; Diro- filaria immitis (naturally infected dogs) were employed in groups each of two dogs.
The compounds provided for tests were Compound Nos. Al, A3 and A12. 20 mg of each was administered by subcutaneous injection per Kg of body weight to each of the two dogs as a suspension in 1% "Tween 80" solution once per day for three days. As control, 3 ml of the 1% "Tween 80" solution was subcutaneously injected into two dogs once per day for three days.
Before administration and on the 10th day after administration, 20 µl of earlobe blood of each dog was sampled and examined to determine the change in microfilaria (mf) according to the concentrated smear color method, and judgement on the effect on microfilaria (mf) was made. Judgement relating to adult filaria was made on the 10th day after the last administration by killing the dogs and carrying out autopsis.
30 mg of each compound was administered by subcutaneous injection per Kg of body weight to each of the two dogs as a suspension in 1% "Tween 80" solution once per day for three days. As control, 3 ml of the 1% "Tween 80" solution was subcutaneously injected into two dogs once per day for three days.
30 mg of each compound was administered by subcutaneous injection per Kg of body weight to each of two dogs as a suspension in 1% "Tween 80" solution once per day for three days. As control, 3 ml of the 1% "Tween 80" solution was subcutaneously injected to two dogs once per day for three days.
20 mg of each compound was administered by subcutaneous injection per kg of body weight once per day for three days to each of two dogs. These compounds were administered as a suspension in 1% "Tween 80" in the case of Compound No.Dl3 and as solutions dissolved in distilled water for injection in the case of Compounds Nos. D10 and D16, respectively. As control, 3 ml of the 1% "Tween 80" solution was subcutaneously injected into two dogs once per day for three days.

[5] = test system: Diphyllobothrium erinacei; experiment: Test of anthelmintic effect against Diphyllobothrium erinacei (tapeworm) in experimentally infected cats (Test Examples A5, B5, C5, D5)
[6] = test system: fowl roundworm (Ascaridia galli); experiment: Anthelmintic test in chickens artificially infected with fowl roundworm, single oral dose in gelatin capsule, worm bodies counted within 48 hours (Test Examples A1, B1, C1, D1); format: in vivo; details: Ascaridia galli, po, 48 h, chickens, one value per chicken (No.1-3), read-out: Anthelmintic effect after 48 hours
Method: Chickens infected artificially with fowl roundworm (Ascaridia galli) were employed in groups each consisting of three chickens. Fecal matter testing was conducted before administration of medicine to confirm infection with the worm. The quantity of the compound provided for testing was 10 mg and 20 mg per Kg of body weight, which was orally administered each in a gelatin capsule to the chicken. The number of worm bodies discharged within 48 hours after administration of medicine was counted, the chicken was killed after 48 hours and the number of worm bodies remaining in the enteron was counted to determine the anthelmintic percentage, wherefrom the antihelmintic effect was judged.
The same as that in Test Example Al.
The same as that in Test Example Al except that the compound provided for testing was in quantities of 30 mg and 50 mg per Kg of body weight, which were orally administered to the chickens in gelatin capsules.
The same as that in Test Example Al, except that the compounds provided for testing were used in quantities of 15 mg and 30 mg per Kg of body weight, which were orally administered each in a gelatin capsule to the chicken.

[7] = 20 mg/Kg x 3 subcutaneously, autopsy on 10th day after the last administration, one value per dog, 20 mg/kg

Structure (SMILES) | inhibition in vivo at 10 ppm [1] [%] | inhibition in vivo at 50 ppm [1] [%] | Condition of fluke body [2] | Presence or absence of fluke egg in fecal matter On 21st day after the last administration [2] | Change of E.P.G. Before administration [3] | Change of E.P.G. 7th day [3] [E.P.G.] | anthelmintic effect [3] | further results
C#CCN(OCC=C)C(=O)CCCCCCCCCCCCCCCCC [Compound A9, N-propargyl-N-stearoyl-N-allylhydroxylamine] | 100 | 100 | dead | - |  |  |  | 
C#CCN(OCC=C)C(=O)c1ccccc1 [Compound A11, N-propargyl-N-benzoyl-O-allylhydroxylamine] | 80 to 90 | 100 | dead | - |  |  |  | 
C#CCN(OCC=C)C(=O)c1ccc(F)cc1 [Compound A12, N-propargyl-N-(p-fluorobenzoyl)-O-allylhydroxylamine] | 80 to 90 | 100 | dead | - | 2,100 E.P.G. and 1,500 E.P.G. | 0 | marked anthelmintic effect | inhibition in vivo at 20 mg/kg ([4]; Dirofilaria immitis, sc, 240 h, administration of 20 mg/Kg repeated three times, given as about 50% or more, read-out: anthelmintic effect against adult filaria): ≥ 50%; Effect on adult filaria: Number of worms killed/Total parasites [4, 7]: 13/21 and 15/26; Effect on adult filaria: Percent of worms killed [4, 7]: 62% and 58%; Number of microfilaria/20 µl On 10th day after the last administration ([4]; 20 mg/Kg x 3 subcutaneously, earlobe blood, one value per dog): 0 /20 µl; anthelmintic effect against microfilaria (mf) ([4]; administration of 20 mg/Kg repeated three times): marked anthelmintic effect; Number of worm bodies remaining in enteron ([5]; cats infected with 5 plerocercoids, 50 mg/Kg x 5 times orally, autopsy ten days after administration, one value per cat): 0; Worm egg detection on 10th day after administration ([5]; cats, 50 mg/Kg x 5 times orally, one value per cat (Table A7)): -; anthelmintic effect ([5]; cats, 5 continuous administrations of 50 mg/Kg): marked anthelmintic effects
C#CCN(C=O)OCC=C [Compound A13, N-propargyl-N-formyl-0-allylhydroxylamine] | 80 to 90 | 100 |  | - |  |  |  | inhibition in vivo at 10 mg/kg ([6]; 10 mg/Kg orally in gelatin capsule): 100%; inhibition in vivo at 20 mg/kg ([6]; 20 mg/Kg orally in gelatin capsule): 100%; Condition of fluke body ([2]; 50 mg/kg): denatured and dead
C=CCN(OCCCCC)C(C)=O [Compound B20] |  | 100 |  |  | 1,000 E.P.G. and 1,600 E.P.G. | 0 | marked anthelmintic effect | inhibition in vivo at 30 mg/kg ([6]; 30 mg/Kg orally in gelatin capsule): 100%; inhibition in vivo at 50 mg/kg ([6]; 50 mg/Kg orally in gelatin capsule): 100%; inhibition in vivo at 20 ppm ([1]; 20 ppm added to feed): 100%
